From US20100285957A1, “THIAZOLYLOXYPHENYLAMIDINES OR THIADIAZOLYLOXYPHENYLAMIDINES AND THEIR USE AS FUNGICIDES” (Bayer CropScience AG, priority 2007, published 2010)
Like-named read-outs stand apart in the source and are kept apart here.

Experiments:
[1] = system: Puccinia recondita var. tritici; test: Puccinia test (wheat)/protective; assay type: in vivo; details: 240 h, 1000 ppm active substance, protective, evaluation 10 days after inoculation, read-out: degree of effectiveness
Procedure: Puccinia Test (Wheat)/Protective
(§1) To prepare a suitable active substance composition, 1 part by weight of active substance is mixed with the given amounts of solvent and emulsifier and the concentrate is diluted to the desired concentration using water.
For the testing of protective effectiveness, young plants are sprayed with the active substance composition in the application rate given. After the spray coating has been dried on, the plants are sprayed with a suspension of the conidia of Puccinia recondita var. tritici. The plants remain in an incubation chamber at 20° C. and 100% relative humidity for 48 hours.
The plants are then placed in a greenhouse at a temperature of approximately 20° C. and a relative humidity of 80%, in order to encourage the development of rust pustules.
Evaluation is carried out 10 days after the inoculation. In this connection, 0% means a degree of effectiveness corresponding to that of the control, while a degree of effectiveness of 100% means that no infestation is observed.

[2] = system: Blumeria graminis f.sp. hordei; test: Blumeria graminis test (barley)/protective; assay type: in vivo; details: 168 h, 1000 ppm active substance, protective, evaluation 7 days after inoculation, read-out: degree of effectiveness
Procedure: Blumeria graminis Test (Barley)/Protective
as §1
For the testing of protective effectiveness, young plants are sprayed with the active substance composition in the application rate given.
After the spray coating has been dried on, the plants are dusted with spores of Blumeria graminis f.sp. hordei.
The plants are placed in a greenhouse at a temperature of approximately 20° C. and a relative humidity of approximately 80%, in order to encourage the development of mildew pustules.
Evaluation is carried out 7 days after the inoculation. In this connection, 0% means a degree of effectiveness corresponding to that of the control, while a degree of effectiveness of 100% means that no infestation is observed.

Pyrenophora teres = Pyrenophora teres test (barley)/protective; assay type: in vivo; details: 500 ppm active substance, protective, evaluation 7-9 days after inoculation, read-out: degree of effectiveness
Procedure: Pyrenophora teres Test (Barley)/Protective
as §1
For the testing of protective effectiveness, young barley plants are sprayed with the active substance composition in the application rate given. 1 day after the treatment, the plants are inoculated with an aqueous suspension of the spores of Pyrenophora teres and then remain at 100% relative humidity and 20° C. for 48 h. Subsequently, the plants are placed in a greenhouse at 80% relative humidity and a temperature of 20° C.
Evaluation is carried out 7-9 days after the inoculation. In this connection, 0% means a degree of effectiveness corresponding to that of the control, while a degree of effectiveness of 100% means that no infestation is observed.

Sphaerotheca fuliginea = test: Sphaerotheca test (cucumber)/protective; assay type: in vivo; details: Podosphaera fuliginea, 168 h, 100 ppm active substance, protective, evaluation 7 days after inoculation, read-out: degree of effectiveness
Procedure: Sphaerotheca Test (Cucumber)/Protective [table] To prepare a suitable active substance composition, 1 part by weight of active substance is mixed with the given amounts of solvents and emulsifier and the concentrate is diluted to the desired concentration using water. For the testing of protective effectiveness, young plants are sprayed with the active substance composition in the application rate given. After the spray coating has been dried on, the plants are inoculated with an aqueous suspension of spores of Sphaerotheca fuliginea. The plants are then placed in a greenhouse at approximately 23° C. and a relative humidity of approximately 70%. Evaluation is carried out 7 days after the inoculation. In this connection, 0% means a degree of effectiveness corresponding to that of the control, while a degree of effectiveness of 100% means that no infestation is observed.

Alternaria solani = test: Alternaria test (tomato)/protective; assay type: in vivo; details: 168 h, 500 ppm active substance, protective, evaluation 7 days after inoculation, read-out: degree of effectiveness
Procedure: Alternaria Test (Tomato)/Protective [table] To prepare a suitable active substance composition, 1 part by weight of active substance is mixed with the given amounts of solvent and emulsifier and the concentrate is diluted to the desired concentration using water. For the testing of protective effectiveness, young tomato plants are sprayed with the active substance composition in the application rate given. 1 day after the treatment, the plants are inoculated with a suspension of the spores of Alternaria solani and then stand at 100% relative humidity and 20° C. for 24 h. Subsequently, the plants stand at 96% relative humidity and a temperature of 20° C. Evaluation is carried out 7 days after the inoculation. In this connection, 0% means a degree of effectiveness corresponding to that of the control, while a degree of effectiveness of 100% means that no infestation is observed.

Uromyces appendiculatus = test: Uromyces test (beans)/protective; assay type: in vivo; details: 240 h, 100 ppm active substance, protective, evaluation 10 days after inoculation, read-out: degree of effectiveness
Procedure: Uromyces Test (Beans)/Protective [table] To prepare a suitable active substance composition, 1 part by weight of active substance is mixed with the given amounts of solvents and emulsifier and the concentrate is diluted to the desired concentration using water. For the testing of protective effectiveness, young plants are sprayed with the active substance composition in the application rate given. After the spray coating has been dried on, the plants are inoculated with an aqueous suspension of the spores of the bean rust pathogen Uromyces appendiculatus and then remain in an incubation chamber at approximately 20° C. and 100% relative humidity for 1 day. The plants are then placed in a greenhouse at approximately 21° C. and a relative humidity of approximately 90%. Evaluation is carried out 10 days after the inoculation. In this connection, 0% means a degree of effectiveness corresponding to that of the control, while a degree of effectiveness of 100% means that no infestation is observed.

logP (physchem; pH 2.3) | logP (physchem) | Compound | pest or weed control at 1000 ppm [1] | pest or weed control at 1000 ppm [2] | pest or weed control at 500 ppm (Pyrenophora teres) | pest or weed control at 100 ppm (Sphaerotheca fuliginea) | pest or weed control at 500 ppm (Alternaria solani) | pest or weed control at 100 ppm (Uromyces appendiculatus)
3.08 | – | Cc1cc(Oc2nc(C3(C)CC3)ns2)c(C)cc1N [2,5-Dimethyl-4-{[3-(1-methylcyclopropyl)-1,2,4-thiadiazol-5-yl]oxy}aniline] | – | – | – | – | – | –
1.76 | – | Cc1cc(Oc2nc(C3(Cl)CC3)ns2)c(C)cc1/N=C/N1CCCCC1 [Compound 13, 4-{[3-(1-Chlorocyclopropyl)-1,2,4-thiadiazol-5-yl]oxy}-2,5-dimethyl-N-[(1E)-piperidin-1-yl-methylidene]aniline] | ≥ 70% | ≥ 70% | ≥ 70% | ≥ 70% | – | –
2.01 | – | Cc1cc(Oc2nc(C3(Cl)CC3)ns2)c(C)cc1N=CN(C)C(C)C [Compound 18, N′-(4-{[3-(1-Chlorocyclopropyl)-1,2,4-thiadiazol-5-yl]oxy}-2,5-dimethylphenyl)-N-methyl-N-(1-methylethyl)imidoformamide] | ≥ 70% | ≥ 70% | ≥ 70% | ≥ 70% | ≥ 70% | ≥ 70%
1.52 | – | Cc1cc(Oc2nc(C3(Cl)CC3)ns2)c(C)cc1N=CN(C)C [Compound 19, N′-(4-{[3-(1-Chlorocyclopropyl)-1,2,4-thiadiazol-5-yl]oxy}-2,5-dimethylphenyl)-N,N-dimethylimidoformamide] | ≥ 70% | ≥ 70% | ≥ 70% | ≥ 70% | ≥ 70% | ≥ 70%
2.08 | – | Cc1cc(Oc2nc(C3(C)CC3(Cl)Cl)ns2)c(C)cc1/N=C/N1CCCCC1 (stereo not drawn) [Compound 26, 4-{[3-(2,2-Dichloro-1-methylcyclopropyl)-1,2,4-thiadiazol-5-yl]oxy}-2,5-dimethyl-N-[(1E)-piperidin-1-ylmethylidene]aniline] | – | – | ≥ 70% | ≥ 70% | ≥ 70% | ≥ 70%
1.6 | – | Cc1cc(Oc2nc(C3(C)CC3)ns2)c(C)cc1/N=C/N1CCC1 [Compound 31, N-[(1E)-Azetidin-1-ylmethylidene]-2,5-dimethyl-4-{[3-(1-methylcyclopropyl)-1,2,4-thiadiazol-5-yl]oxy}aniline] | ≥ 70% | ≥ 70% | – | – | – | –

Continued, compound first:

Compound | logP (physchem; pH 2.3) | logP (physchem) | pest or weed control at 1000 ppm [1] | pest or weed control at 1000 ppm [2] | pest or weed control at 500 ppm (Pyrenophora teres) | pest or weed control at 100 ppm (Sphaerotheca fuliginea) | pest or weed control at 500 ppm (Alternaria solani) | pest or weed control at 100 ppm (Uromyces appendiculatus)
Cc1cc(Oc2nc(C3CC3C)ns2)c(C)cc1/N=C/N1CCCCC1 (stereo not drawn) [Compound 16, 2,5-Dimethyl-4-{[3-(2-methylcyclopropyl)-1,2,4-thiadiazol-5-yl]oxy}-N-[(1E)-piperidin-1-ylmethylidene]aniline] | 1.78 | – | ≥ 70% | ≥ 70% | ≥ 70% | ≥ 70% | ≥ 70% | ≥ 70%
Cc1cc(Oc2nc(C3CC3C)ns2)c(C)cc1N=CN(C)C (stereo not drawn) [Compound 20, N′-(2,5-Dimethyl-4-{[3-(2-methylcyclopropyl)-1,2,4-thiadiazol-5-yl]oxy}phenyl)-N,N-di-methylimidoformamide] | 1.62 | – | ≥ 70% | ≥ 70% | ≥ 70% | ≥ 70% | ≥ 70% | ≥ 70%
CCN(C)C=Nc1cc(C)c(Oc2nc(C3(C)CC3)cs2)cc1C [Compound 22, N′-(2,5-Dimethyl-4-{[4-(1-methylcyclopropyl)-1,3-thiazol-2-yl]oxy}phenyl)-N-ethyl-N-methylimidoformamide] | 1.86 | 4.96 | ≥ 70% | ≥ 70% | – | – | ≥ 70% | –
Cc1cc(Oc2nc(C3(C)CC3)c(Cl)s2)c(C)cc1/N=C/N1CCCCC1 [Compound 24, 4-{[5-Chloro-4-(1-methylcyclopropyl)-1,3-thiazol-2-yl]oxy}-2,5-dimethyl-N-[(1E)-piperidin-1-ylmethylidene]aniline] | 2.34 | – | ≥ 70% | ≥ 70% | ≥ 70% | ≥ 70% | ≥ 70% | ≥ 70%
CCC1(c2nsc(Oc3cc(C)c(/N=C/N4CCCCC4)cc3C)n2)C(C)C1(Cl)Cl (stereo not drawn) [Compound 28, 4-{[3-(2,2-Dichloro-1-ethyl-3-methylcyclopropyl)-1,2,4-thiadiazol-5-yl]oxy}-2,5-dimethyl-N-[(1E)-piperidin-1-ylmethylidene]aniline] | 2.35 | – | – | – | ≥ 70% | ≥ 70% | – | ≥ 70%
Cc1cc(Oc2nc(C3CC3C)ns2)c(C)cc1/N=C/N1CCC1 (stereo not drawn) [Compound 32, N-[(1E)-Azetidin-1-ylmethylidene]-2,5-dimethyl-4-{[3-(2-methylcyclopropyl)-1,2,4-thiadiazol-5-yl]oxy}aniline] | 1.96 | – | – | – | – | – | – | –
CCN(C)C=Nc1cc(Cl)c(Oc2nc(C3(Cl)CC3)ns2)cc1C [Compound 33, N′-(5-Chloro-4-{[3-(1-chlorocyclopropyl)-1,2,4-thiadiazol-5-yl]oxy}-2-methylphenyl)-N-ethyl-N-methylimidoformamide] | 1.72 | – | – | – | ≥ 70% | ≥ 70% | ≥ 70% | –
Cc1cc(Oc2nc(C3(Cl)CC3)ns2)c(Cl)cc1/N=C/N1CCCCC1 [Compound 34, 5-Chloro-4-{[3-(1-chlorocyclopropyl)-1,2,4-thiadiazol-5-yl]oxy}-2-methyl-N-[(1E)-piperidin-1-ylmethylidene]aniline] | 1.98 | – | – | – | ≥ 70% | ≥ 70% | – | –
